Experimental data published in US10975078B2, “Fused indazole pyridone compounds as antivirals” (priority 2017, dated 2021).

test system: HBsAg secretion, HepG2-Clone42 cells (Tet-inducible HBV-expressing, HBV ayw strain); experiment: HBsAg assay (HBsAg ELISA, secreted HBV sAg from HepG2-Clone42 cells); format: cell-based; details: Hepatitis B virus, read-out: HBsAg (nM), EC50 = concentration at which HBsAg secretion was reduced 50% compared to DMSO control
Description: HepG2-Clone42, a Tet-inducible HBV-expressing cell line with a stably integrated 1.3 mer copy of the HBV ayw strain, was generated based on the Tet-inducible HepAD38 cell line with slight modifications. Ladner S K, et al., Antimicrobial Agents and Chemotherapy. 41(8):1715-1720 (1997). HepG2-Clone42 cells were cultured in DMEM/F-12+Glutamax™ (Life Technologies, Carlsbad, Calif., USA), supplemented with 10% fetal bovine serum (Life Technologies), G-418 (Corning, Manassas, Va., USA) at a final concentration of 0.5 mg/mL, and 5 μg/mL Doxycycline (Sigma, St. Louis, Mo., USA) and maintained in 5% CO2 at 37° C.
HepG2-Clone42 cells were seeded into black clear-bottom 96-well plates at a concentration of 6.0×10^4 cells/well. 24 hours post-seeding, the cells were treated with 200 μl/well of media containing five-fold serial dilutions of compounds in DMSO. DMSO alone was used as the no drug control. The final DMSO concentration in all wells was 0.5%.
The HBsAg ELISA kit (Alpha Diagnostic International, San Antonio, Tex., USE, Catalog #4110) was used to determine the level (semi-quantitative) of secreted HBV sAg. The HBSAg ELISA assay was performed following the manufacturer's protocol as described.
Step 1. Pipet 100 μL each of compound or DMSO treated samples into HBsAg ELISA plates. Seal plates and incubate at room temp for 60 minutes.
Step 2. Aspirate samples and wash three times with Wash Buffer. Dispense 100 μL of antibody-HRP conjugate to each well. Incubate at room temp for 30 minutes.
Step 3. Aspirate samples and wash three times with Wash Buffer. Add 100 μL of TMB Substrate to all wells and incubate 15 minutes at room temp.
Step 4. Dispense 100 μL of Stop Solution to each well. Measure absorbance of ELISA plate at 450 nm.
Dose-response curves were generated and the EC50 value was defined as the compound concentration at which HBsAg secretion was reduced 50% compared to the DMSO control.
EC50 values were determined as follows:
Determine the percent of HBsAg secretion inhibition. Calculate the percent inhibition on of HBsAg secretion inhibition using the following equation: […]
where XC is the absorbance signal from compound-treated well; MB is average absorbance signal (background signal) for column 12 (no cells+HBsAg ELISA sample buffer) and MD is average absorbance signal from DMSO-treated wells. Then calculate EC50 values by non-linear regression using a four parameter curve logistic equation.
The curve fit model employed is XLFit Dose Response One Site Model 204: y=(A+((B−A)/(1+(10^((C−x)*D))))) where A is the minimum y value, B is the maximum y value, C is the log EC50 value, and D is the slope factor. In the following table+≥100 nM; 100 nM>++≥1 nM; 1 nM>+++

| SMILES | EC50 |
| --- | --- |
| CC(C)(C)C1Cn2nc3c(OCC4CCOC4)cccc3c2-c2cc(=O)c(C(=O)O)cn21 (racemic) [Example 2.8, 6-(tert-butyl)-2-oxo-10-((tetrahydrofuran-3-yl)methoxy)-6,7-dihydro-2H-pyrido[2′,1′:3,4]pyrazino[1,2-b]indazole-3-carboxylic Acid] | < 1 nM |
| COCC(C)Oc1cccc2c3n(nc12)CC(C(C)(C)C)n1cc(C(=O)O)c(=O)cc1-3 (single isomer, unassigned) [Example 2.35-I, 6-(tert-butyl)-10-((1-methoxypropan-2-yl)oxy)-2-oxo-6,7-dihydro-2H-pyrido[2′,1′:3,4]pyrazino[1,2-b]indazole-3-carboxylic Acid] | 1 to 100 nM |
| CC(C)(C)C1Cn2nc3c(OCCOCC(F)(F)F)cccc3c2-c2cc(=O)c(C(=O)O)cn21 (centres unmarked) [Example 2.3, 6-(tert-butyl)-2-oxo-10-(2-(2,2,2-trifluoroethoxy)ethoxy)-6,7-dihydro-2H-pyrido[2′,1′:3,4]pyrazino[1,2-b]indazole-3-carboxylic Acid] | < 1 nM |
| CC(C)(C)C1Cn2nc3c(OC4CCC4)cccc3c2-c2cc(=O)c(C(=O)O)cn21 (racemic) [Example 2.29, 6-(tert-butyl)-10-cyclobutoxy-2-oxo-6,7-dihydro-2H-pyrido[2′,1′:3,4]pyrazino[1,2-b]indazole-3-carboxylic Acid] | < 1 nM |
| CC(C)(C)C1Cn2nc3c(OCCCO)cccc3c2-c2cc(=O)c(C(=O)O)cn21 (racemic) [Example 2.17, 6-(tert-butyl)-10-(3-hydroxypropoxy)-2-oxo-6,7-dihydro-2H-pyrido[2′,1′:3,4]pyrazino[1,2-b]indazole-3-carboxylic Acid] | < 1 nM |
| COCCOc1cccc2c3n(nc12)C1CCC(C)(C)C1n1cc(C(=O)O)c(=O)cc1-3 (single isomer, unassigned) [Example 6.2-I, 12-(2-methoxyethoxy)-3,3-dimethyl-7-oxo-2,3,3a,14a-tetrahydro-1H,7H-cyclopenta[5,6]pyrido[2′,1′:3,4]pyrazino[1,2-b]indazole-6-carboxylic Acid] | 1 to 100 nM |
| CC(C)(C)C1Cn2nc3c(OCC4COCCO4)cccc3c2-c2cc(=O)c(C(=O)O)cn21 (racemic) [Example 2.22, 10-((1,4-dioxan-2-yl)methoxy)-6-(tert-butyl)-2-oxo-6,7-dihydro-2H-pyrido[2′,1′:3,4]pyrazino[1,2-b]indazole-3-carboxylic Acid] | 1 to 100 nM |
| CC(C)(C)C1Cn2nc3c(OCCF)cccc3c2-c2cc(=O)c(C(=O)O)cn21 (racemic) [Example 2.41, 6-(tert-butyl)-10-(2-fluoroethoxy)-2-oxo-6,7-dihydro-2H-pyrido[2′,1′:3,4]pyrazino[1,2-b]indazole-3-carboxylic Acid] | < 1 nM |
| CC(C)(C)C1Cn2nc3c(OC4CCNCC4)cccc3c2-c2cc(=O)c(C(=O)O)cn21 (racemic) [Example 2.27, 6-(tert-butyl)-2-oxo-10-(piperidin-4-yloxy)-6,7-dihydro-2H-pyrido[2′,1′:3,4]pyrazino[1,2-b]indazole-3-carboxylic Acid] | > 100 nM |
| CC(C)(C)C1Cn2nc3c(OCC(F)F)cccc3c2-c2cc(=O)c(C(=O)O)cn21 (racemic) [Example 2.10, 6-(tert-butyl)-10-(2,2-difluoroethoxy)-2-oxo-6,7-dihydro-2H-pyrido[2′,1′:3,4]pyrazino[1,2-b]indazole-3-carboxylic Acid] | < 1 nM |
| CCCOc1cccc2c3n(nc12)CC(C(C)(C)C)n1cc(C(=O)O)c(=O)cc1-3 (racemic) [Example 2.11, 6-(tert-butyl)-2-oxo-10-propoxy-6,7-dihydro-2H-pyrido[2′,1′:3,4]pyrazino[1,2-b]indazole-3-carboxylic Acid] | < 1 nM |
| CC(C)(C)C1Cn2nc3c(OCC(O)CO)cccc3c2-c2cc(=O)c(C(=O)O)cn21 (racemic) [Example 2.28, 6-(tert-butyl)-10-(2,3-dihydroxypropoxy)-2-oxo-6,7-dihydro-2H-pyrido[2′,1′:3,4]pyrazino[1,2-b]indazole-3-carboxylic Acid] | > 100 nM |
| CC(C)(C)C1Cn2nc3c(OC4CCOCC4)cccc3c2-c2cc(=O)c(C(=O)O)cn21 (racemic) [Example 2.38, 6-(tert-butyl)-2-oxo-10-((tetrahydro-2H-pyran-4-yl)oxy)-6,7-dihydro-2H-pyrido[2′,1′:3,4]pyrazino[1,2-b]indazole-3-carboxylic Acid] | 1 to 100 nM |

same assay, conditions: read-out: HBsAg, EC50 = concentration at which HBsAg secretion was reduced 50% compared to DMSO control

| SMILES | EC50 |
| --- | --- |
| COc1cccc2c3n(nc12)C1CCC(C)(C)C1n1cc(C(=O)O)c(=O)cc1-3 (single isomer, unassigned) [Example 5.1-II, 12-methoxy-3,3-dimethyl-7-oxo-2,3,3a,14a-tetrahydro-1H,7H-cyclopenta[5,6]pyrido[2′,1′:3,4]pyrazino[1,2-b]indazole-6-carboxylic Acid] | > 100 nM |
| COc1ccc2nn3c(c2c1)-c1cc(=O)c(C(=O)O)cn1C(C(C)(C)C)C3 (single isomer, unassigned) [Example 1.3-I, 6-(tert-butyl)-12-methoxy-2-oxo-6,7-dihydro-2H-pyrido[2′,1′:3,4]pyrazino[1,2-b]indazole-3-carboxylic acid] | 1 to 100 nM |
| COCCCOc1cccc2c3n(nc12)CC(C(C)(C)COC)n1cc(C(=O)O)c(=O)cc1-3 (single isomer, unassigned) [Example 7.1-II, 6-(1-methoxy-2-methylpropan-2-yl)-10-(3-methoxypropoxy)-2-oxo-6,7-dihydro-2H-pyrido[2′,1′:3,4]pyrazino[1,2-b]indazole-3-carboxylic Acid] | < 1 nM |
| COc1cccc2c3n(nc12)C1COC(C)(C)C1n1cc(C(=O)O)c(=O)cc1-3 (single isomer, unassigned) [Example 10.1-II, 12-methoxy-3,3-dimethyl-7-oxo-1,3,3a,14a-tetrahydro-7H-furo[3′,4′:5,6]pyrido[2′,1′:3,4]pyrazino[1,2-b]indazole-6-carboxylic Acid] | 1 to 100 nM |
| COCCCOc1cccc2c3n(nc12)CC(C(C)(C)COC)n1cc(C(=O)O)c(=O)cc1-3 (single isomer, unassigned) [Example 7.1-I, 6-(1-methoxy-2-methylpropan-2-yl)-10-(3-methoxypropoxy)-2-oxo-6,7-dihydro-2H-pyrido[2′,1′:3,4]pyrazino[1,2-b]indazole-3-carboxylic Acid] | > 100 nM |
| COCC(C)(C)C1Cn2nc3c(OC)cccc3c2-c2cc(=O)c(C(=O)O)cn21 (single isomer, unassigned) [Example 4.1-II, 10-methoxy-6-(1-methoxy-2-methylpropan-2-yl)-2-oxo-6,7-dihydro-2H-pyrido[2′,1′:3,4]pyrazino[1,2-b]indazole-3-carboxylic Acid] | > 100 nM |
| COCC(C)Oc1cccc2c3n(nc12)CC(C(C)(C)C)n1cc(C(=O)O)c(=O)cc1-3 (single isomer, unassigned) [Example 2.35-II, 6-(tert-butyl)-10-((1-methoxypropan-2-yl)oxy)-2-oxo-6,7-dihydro-2H-pyrido[2′,1′:3,4]pyrazino[1,2-b]indazole-3-carboxylic Acid] | 1 to 100 nM |
| CC(C)(C)C1Cn2nc3c(OC[C@H]4CCC(=O)N4)cccc3c2-c2cc(=O)c(C(=O)O)cn21 (single isomer, unassigned) [Example 2.34-II] | > 100 nM |
| COc1cccc2c3n(nc12)C1COC(C)(C)C1n1cc(C(=O)O)c(=O)cc1-3 (single isomer, unassigned) [Example 10.1-I, 12-methoxy-3,3-dimethyl-7-oxo-1,3,3a,14a-tetrahydro-7H-furo[3′,4′:5,6]pyrido[2′,1′:3,4]pyrazino[1,2-b]indazole-6-carboxylic Acid] | > 100 nM |
| CC1(C)CCC2C1n1cc(C(=O)O)c(=O)cc1-c1c3cccc(F)c3nn12 (single isomer, unassigned) [Example 5.2-I, 12-fluoro-3,3-dimethyl-7-oxo-2,3,3a,14a-tetrahydro-1H,7H-cyclopenta[5,6]pyrido[2′,1′:3,4]pyrazino[1,2-b]indazole-6-carboxylic Acid] | 1 to 100 nM |
